From patent US12617779B2, “Self degradation-type CDK9 inhibitor prodrug and liposome encapsulating same” (Sumitomo Pharma Co., Ltd., priority 2021, dated 2026)
Structures can show the parent of a compound that is named as a salt.

Experiments:
[1] = Evaluation of conversion rate to active form in BALB/c mouse plasma (Experimental Example 3); type: in vitro ADME; settings: 0.2 μmol/L; for Conversion to Alvocidib in BALB/c mouse plasma: Examples up to 60 minutes, Comparative Examples up to 120 minutes
Procedure, shortened: (§1)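 Test compound at 0.2 μmol/L was incubated at 37° C in human or BALB/c mouse plasma and sampled at 0, 30 and 60 min or at 0, 60 and 120 min. Compound and Alvocidib were quantified by LC-MS/MS peak area. Attrition is relative to 0 min; conversion is relative to 0.2 μmol/L Alvocidib reference.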

[2] = Stability evaluation of liposome formulation under storage conditions (Experimental Example 5); type: physicochemical; settings: for Alvocidib content % in liposome formulation: liposome formulation stored at 5° C.; for Change of Alvocidib content in liposome formulation: 5° C.
Method: For Example 1, Example 2, Example 5, Example 6, Example 7, Example 8, Comparative Example 7 and Comparative Example 9, the storage stability of liposome formulation was evaluated by the following method.
For the liposome formulations of Example 1, Example 2, Example 5, Example 6, Example 7, Example 8, Comparative Example 7, and Comparative Example 9, the liposome outer solution was replaced with 10% sucrose solution or 10 mM tartrate buffer solution/10% sucrose solution (pH 4) using Sephadex G-25 column (PD-10, manufactured by GE Healthcare) or a dialysis cassette (Slide-A-Lyzer G2 Dialysis Cassettes 20K MWCO, manufactured by Thermo Scientific) to remove unencapsulated compound. The liposome formulation was filtered through a 0.22 μm membrane filter, and stored at 5° C. After 0 to 18 months, the Alvocidib content in the liposome formulations of Example 1, Example 2, Example 5, Example 6, Example 7, Example 8, Comparative Example 7 and Comparative Example 9 was determined by HPLC.
The HPLC measurement conditions are as follows.

[3] = Evaluation of conversion rate to active form in human plasma (Experimental Example 3); type: in vitro ADME; settings: 0.2 μmol/L; for Conversion to Alvocidib in human plasma: Examples up to 60 minutes, Comparative Examples up to 120 minutes
Procedure, shortened: as §1

A673 cells = test: Drug efficacy evaluation test using tumor-bearing mice transplanted with A673 cells (Experimental Example 8); type: in vivo, BALB/c mice; settings: liposome formulation, tail vein, 50 mg/kg twice a week
Method: The liposome formulation encapsulating the compound of the present disclosure was treated and evaluated for anti-tumor effect and weight loss.
The liposome formulations were prepared as follows. The liposomes encapsulating the compounds of Example 1, Example 2, Example 5 and Example 6 were prepared in the same manner as in Experimental Example 4, respectively. The liposome outer solution was replaced with 10 mM tartrate buffer solution/10% sucrose solution (pH4.0) using a dialysis cassette (Slide-A-Lyzer G2 Dialysis Cassettes 20K MWCO, manufactured by Thermo Scientific), followed by filtration through a 0.22 μm membrane filter.
A673 cells (ATCC) were intradermally transplanted into 5-week-old BALB/c mice (CAnN.Cg-Foxnlnu/CrlCrlj, female, Charles River, Japan) around the ventral region at 3×10^6 cells/mouse. After confirming the engraftment of A673 cells 6 days after transplantation, they were divided into groups based on tumor diameter and body weight, and liposome formulations encapsulating Example 1, Example 2, Example 5 and Example 6 were administered through the tail vein at dose of 50 mg/kg twice a week, respectively. […] The tumor volume was measured over time from the start of administration, and the tumor volume reduction effect due to compound administration was evaluated. The tumor volume was calculated by the following formula using the short and long diameters of the tumor measured with an electronic caliper (Mitutoyo). For comparison in this test, an empty liposome solution prepared in the same manner as in Experimental Example 1 was used.
The anti-tumor effect was evaluated by comparing the control group administered with the empty liposome solution and the administration group of the compound of the present disclosure, and calculating T/C by the following formula.

Row | SMILES | Effect on tumor volume (A673 cells) | Conversion to Alvocidib in BALB/c mouse plasma ([1]; 37° C.) | Residual rate (%) of test compound ([1]; Mouse plasma, 37° C., 0 min) | Residual rate (%) of test compound ([1]; Mouse plasma, 37° C., 30 min) | Residual rate (%) of test compound ([1]; Mouse plasma, 37° C., 60 min) | Residual rate (%) of test compound ([3]; Human plasma, 37° C., 0 min) | Residual rate (%) of test compound ([3]; Human plasma, 37° C., 30 min) | Residual rate (%) of test compound ([3]; Human plasma, 37° C., 60 min) | Conversion to Alvocidib in human plasma ([3]; 37° C.) | further results
1 | C[C@H](N)C(=O)O[C@@H]1CN(C)CC[C@@H]1c1c(O)cc(O)c2c(=O)cc(-c3ccccc3Cl)oc12 [Comparative Example 7, reference compound] | – | – | – | – | – | – | – | – | – | Production rate (%) of Alvocidib ([1]; BALB/c, mouse, 0 min): 1%; Residual rate (%) of test compound ([1]; BALB/c, mouse, 0 min): 100%; Production rate (%) of Alvocidib ([1]; BALB/c, mouse, 60 min): 64%; Residual rate (%) of test compound ([1]; BALB/c, mouse, 60 min): 25%; Production rate (%) of Alvocidib ([1]; BALB/c, mouse, 120 min): 79%; Residual rate (%) of test compound ([1]; BALB/c, mouse, 120 min): 10%; Alvocidib content % in liposome formulation ([2]; 0 month): 0.56%; Alvocidib content % in liposome formulation ([2]; 7 months): 23.2%; Change of Alvocidib content in liposome formulation ([2]; at 6 to 7 months): significant increase; Production rate (%) of Alvocidib ([3]; human, 0 min): 6%; Residual rate (%) of test compound ([3]; human, 0 min): 100%; Production rate (%) of Alvocidib ([3]; human, 60 min): 26%; Residual rate (%) of test compound ([3]; human, 60 min): 77%; Production rate (%) of Alvocidib ([3]; human, 120 min): 32%; Residual rate (%) of test compound ([3]; human, 120 min): 65%
2 | CN1CC[C@H](c2c(O)cc(O)c3c(=O)cc(-c4ccccc4Cl)oc23)[C@H](OC(=O)[C@@H](N)CO)C1 [Comparative Example 9, reference compound] | – | – | – | – | – | – | – | – | – | Production rate (%) of Alvocidib ([1]; BALB/c, mouse, 0 min): 3%; Residual rate (%) of test compound ([1]; BALB/c, mouse, 0 min): 100%; Production rate (%) of Alvocidib ([1]; BALB/c, mouse, 60 min): 33%; Residual rate (%) of test compound ([1]; BALB/c, mouse, 60 min): 70%; Production rate (%) of Alvocidib ([1]; BALB/c, mouse, 120 min): 43%; Residual rate (%) of test compound ([1]; BALB/c, mouse, 120 min): 54%; Alvocidib content % in liposome formulation ([2]; 0 month): 1.17%; Alvocidib content % in liposome formulation ([2]; 6 months): 27.2%; Change of Alvocidib content in liposome formulation ([2]; at 6 to 7 months): significant increase; Production rate (%) of Alvocidib ([3]; human, 0 min): 3%; Residual rate (%) of test compound ([3]; human, 0 min): 100%; Production rate (%) of Alvocidib ([3]; human, 60 min): 18%; Residual rate (%) of test compound ([3]; human, 60 min): 85%; Production rate (%) of Alvocidib ([3]; human, 120 min): 25%; Residual rate (%) of test compound ([3]; human, 120 min): 80%
3 | CCN(C[C@@H]1CCCCN1)C(=O)Oc1cc(O)c2c(=O)cc(-c3ccccc3Cl)oc2c1[C@H]1CCN(C)C[C@H]1O [Example 1, 2-(2-chlorophenyl)-5-hydroxy-8-[(3S,4R)-3-hydroxy-1-methylpiperidin-4-yl]-4-oxo-4H-1-benzopyran-7-yl ethyl{[(2S)-piperidin-2-yl]methyl}carbamate ditrifluoroacetate] | significantly inhibited the increase in tumor volume | proceeded rapidly | 100% | 24% | 3% | 100% | 6% | 0% | proceeded rapidly | Weight loss of 10% or more compared to the start of administration (A673 cells): without weight loss
4 | CCN(C[C@H]1CCCCN1)C(=O)Oc1cc(O)c2c(=O)cc(-c3ccccc3Cl)oc2c1[C@H]1CCN(C)C[C@H]1O [Example 2, 2-(2-chlorophenyl)-5-hydroxy-8-[(3S,4R)-3-hydroxy-1-methylpiperidin-4-yl]-4-oxo-4H-1-benzopyran-7-yl ethyl{[(2R)-piperidin-2-yl]methyl}carbamate] | inhibited the increase in tumor volume | proceeded rapidly | 100% | 25% | 4% | 100% | 4% | 2% | proceeded rapidly | Weight loss of 10% or more compared to the start of administration (A673 cells): without weight loss
5 | CN1CC[C@H](c2c(OC(=O)N(C)C[C@@H]3CCCCN3)cc(O)c3c(=O)cc(-c4ccccc4Cl)oc23)[C@H](O)C1 [Example 3, 2-(2-chlorophenyl)-5-hydroxy-8-[(3S,4R)-3-hydroxy-1-methylpiperidin-4-yl]-4-oxo-4H-1-benzopyran-7-yl methyl{[(2S)-piperidin-2-yl]methyl}carbamate] | – | proceeded rapidly | 100% | 8% | 0% | 100% | 3% | 0% | proceeded rapidly | –
6 | CN1CC[C@H](c2c(OC(=O)N(C)C[C@H]3CCCCN3)cc(O)c3c(=O)cc(-c4ccccc4Cl)oc23)[C@H](O)C1 [Example 4, 2-(2-chlorophenyl)-5-hydroxy-8-[(3S,4R)-3-hydroxy-1-methylpiperidin-4-yl]-4-oxo-4H-1-benzopyran-7-yl methyl{[(2R)-piperidin-2-yl]methyl}carbamate] | – | proceeded rapidly | 100% | 5% | 3% | 100% | 4% | 4% | proceeded rapidly | –
7 | CCCN(C[C@@H]1CCCCN1)C(=O)Oc1cc(O)c2c(=O)cc(-c3ccccc3Cl)oc2c1[C@H]1CCN(C)C[C@H]1O [Example 5, 2-(2-chlorophenyl)-5-hydroxy-8-[(3S,4R)-3-hydroxy-1-methylpiperidin-4-yl]-4-oxo-4H-1-benzopyran-7-yl {[(2S)-piperidin-2-yl]methyl}propylcarbamate] | inhibited the increase in tumor volume | proceeded rapidly | 100% | 36% | 8% | 100% | 1% | 0% | proceeded rapidly | –
8 | CCCN(C[C@H]1CCCCN1)C(=O)Oc1cc(O)c2c(=O)cc(-c3ccccc3Cl)oc2c1[C@H]1CCN(C)C[C@H]1O [Example 6, 2-(2-chlorophenyl)-5-hydroxy-8-[(3S,4R)-3-hydroxy-1-methylpiperidin-4-yl]-4-oxo-4H-1-benzopyran-7-yl {[(2R)-piperidin-2-yl]methyl}propylcarbamate] | inhibited the increase in tumor volume | proceeded rapidly | 100% | 26% | 2% | 100% | 3% | 2% | proceeded rapidly | –
9 | CCN(CC1CCCCN1)C(=O)Oc1cc(O)c2c(=O)cc(-c3ccccc3Cl)oc2c1[C@H]1CCN(C)C[C@H]1O (stereo partly drawn) [Example 7, 2-(2-chlorophenyl)-5-hydroxy-8-[(3S,4R)-3-hydroxy-1-methylpiperidin-4-yl]-4-oxo-4H-1-benzopyran-7-yl ethyl[(piperidin-2-yl)methyl]carbamate dihydrochloride] | – | – | – | – | – | – | – | – | – | Change of Alvocidib content in liposome formulation ([2]; after 15 months): hardly increased
10 | CN1CC[C@H](c2c(OC(=O)N(C)CC3CCCCN3)cc(O)c3c(=O)cc(-c4ccccc4Cl)oc23)[C@H](O)C1 (stereo partly drawn) [Example 8, 2-(2-chlorophenyl)-5-hydroxy-8-[(3S,4R)-3-hydroxy-1-methylpiperidin-4-yl]-4-oxo-4H-1-benzopyran-7-yl methyl[(piperidin-2-yl)methyl]carbamate] | – | – | – | – | – | – | – | – | – | Change of Alvocidib content in liposome formulation ([2]; after 18 months): hardly increased
